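Following 48 hours of exposure in 96-well plates, responses at five concentrations were used to interpolate endpoints linearly. TGI is the concentration that stops growth completely.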
Key:
Experiment in all cases: NCI tumour cell line growth inhibition, 48 h
786-0 renal = system: 786-0 renal
A498 renal = system: A498 renal
A549 NSCLC = system: A549 NSCLC
ACHN renal = system: ACHN renal
CAKI-1 renal = system: CAKI-1 renal
CCRF-CEM leukemia = system: CCRF-CEM leukemia
COLO 205 colon = system: COLO 205 colon
DU-145 prostate = system: DU-145 prostate
EKVX NSCLC = system: EKVX NSCLC
HCC-2998 colon = system: HCC-2998 colon
HCT-116 colon = system: HCT-116 colon
HCT-15 colon = system: HCT-15 colon
HOP-62 NSCLC = system: HOP-62 NSCLC
HOP-92 NSCLC = system: HOP-92 NSCLC
HS 578T breast = system: HS 578T breast
HT29 colon = system: HT29 colon
IGROV1 ovarian = system: IGROV1 ovarian
K-562 leukemia = system: K-562 leukemia
KM12 colon = system: KM12 colon
LOX IMVI melanoma = system: LOX IMVI melanoma
M14 melanoma = system: M14 melanoma
MALME-3M melanoma = system: MALME-3M melanoma
MCF7 breast = system: MCF7 breast
MDA-MB-231 breast = system: MDA-MB-231 breast
MDA-MB-435 = system: MDA-MB-435
MDA-N = system: MDA-N
MOLT-4 leukemia = system: MOLT-4 leukemia
NCI-H226 lung = system: NCI-H226 lung
NCI-H23 lung = system: NCI-H23 lung
NCI-H460 lung = system: NCI-H460 lung
NCI-H522 lung = system: NCI-H522 lung
NCI/ADR-RES ovarian = system: NCI/ADR-RES ovarian
OVCAR-3 ovarian = system: OVCAR-3 ovarian
OVCAR-4 ovarian = system: OVCAR-4 ovarian
OVCAR-5 ovarian = system: OVCAR-5 ovarian
OVCAR-8 ovarian = system: OVCAR-8 ovarian
PC-3 prostate = system: PC-3 prostate
RPMI-8226 leukemia = system: RPMI-8226 leukemia
RXF 393 renal = system: RXF 393 renal
SF-268 CNS = system: SF-268 CNS
SF-295 CNS = system: SF-295 CNS
SF-539 CNS = system: SF-539 CNS
SK-MEL-2 melanoma = system: SK-MEL-2 melanoma
SK-MEL-28 melanoma = system: SK-MEL-28 melanoma
SK-MEL-5 melanoma = system: SK-MEL-5 melanoma
SK-OV-3 ovarian = system: SK-OV-3 ovarian
SN12C renal = system: SN12C renal
SNB-19 CNS = system: SNB-19 CNS
SNB-75 CNS = system: SNB-75 CNS
SR leukemia = system: SR leukemia
SW-620 colon = system: SW-620 colon
T-47D breast = system: T-47D breast
TK-10 renal = system: TK-10 renal
U251 CNS = system: U251 CNS
UACC-257 melanoma = system: UACC-257 melanoma
UACC-62 melanoma = system: UACC-62 melanoma
UO-31 renal = system: UO-31 renal
HL-60(TB) leukemia = system: HL-60(TB) leukemia

Measured: TGI

Cc1nc(Nc2ccc(Cl)cc2Cl)sc1C(=O)Nc1ccccc1
17.4 µM: NCI-H226 lung
not listed: HL-60(TB) leukemia
> 100 µM: all other assays above

CC(C)C(O)(C(=O)OCN1C(=O)C2C3C=CC(C2C1=O)C1C2C(=O)N(COC(=O)C(O)(C(C)C)C(C)O)C(=O)C2C31)C(C)O (stereo not drawn)
not listed: HOP-92 NSCLC | LOX IMVI melanoma | UACC-257 melanoma
> 100 µM: all other assays above

Cc1cc(C23OC4COC(C)(C)OC4C2OC(C)(C)O3)nc2ccccc12 (stereo not drawn)
not listed: A498 renal | CAKI-1 renal
> 100 µM: all other assays above

From PubChem BioAssay (NCI)
